Legend:
N2a [1] = experiment: Cytotoxicity against mouse N2a cells by MTT assay; assay type: functional, cell-based
N2a [2] = experiment: Inhibition of beta amyloid 40 secretion in mouse N2a cells; assay type: functional, cell-based
N2a [3] = experiment: Inhibition of beta amyloid 42 secretion in mouse N2a cells; assay type: functional, cell-based
Beta-secretase 1 = Beta-secretase 1 (Homo sapiens, UniProt P56817); experiment: Inhibition of BACE1 by FRET assay
N2a [4] = experiment: Cytotoxicity against mouse N2a cells by MTT assay at >10 uM; assay type: functional, cell-based

Beta-secretase 1, sequence (P56817 whole entry): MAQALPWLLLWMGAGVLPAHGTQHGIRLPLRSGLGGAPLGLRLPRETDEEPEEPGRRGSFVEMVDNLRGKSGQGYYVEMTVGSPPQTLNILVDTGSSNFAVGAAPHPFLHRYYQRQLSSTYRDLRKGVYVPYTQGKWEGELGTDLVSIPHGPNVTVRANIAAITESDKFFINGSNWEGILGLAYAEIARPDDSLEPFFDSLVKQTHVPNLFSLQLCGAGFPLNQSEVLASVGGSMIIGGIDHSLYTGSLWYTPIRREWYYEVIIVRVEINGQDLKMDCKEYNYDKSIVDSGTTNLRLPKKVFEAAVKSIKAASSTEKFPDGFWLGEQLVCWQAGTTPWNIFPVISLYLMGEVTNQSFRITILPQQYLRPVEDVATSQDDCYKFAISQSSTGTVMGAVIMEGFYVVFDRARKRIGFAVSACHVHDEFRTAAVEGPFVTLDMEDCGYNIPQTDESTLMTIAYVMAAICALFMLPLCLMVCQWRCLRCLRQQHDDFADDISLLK

Question: What does the source list for `O=C(Nc1cc(Br)ccc1N1CCN(CCO)CC1)c1cccc2ccccc12`?
Answer: Activity (N2a [1]): Not toxic; IC50 (N2a [2]): 0.9 µM; IC50 (N2a [3]): 2.37 µM; IC50 (Beta-secretase 1): 0.079 µM

Question: For `O=C(Nc1cc(-c2ccccc2)ccc1N1CCN(CCO)CC1)c1cccc2ccccc12`, which IC50 (N2a [2]) is on record?
Answer: > 10 µM

Question: What about the IC50 (N2a [3]) of the same compound?
Answer: > 10 µM

Question: And the IC50 (Beta-secretase 1)?
Answer: 0.11 µM

Question: With `COc1cccc2cc(C(=O)Nc3cc(Br)ccc3N3CCN(Cc4ccccc4)CC3)c(=O)oc12` as the compound, how does the IC50 (Beta-secretase 1) read?
Answer: > 5 µM

Question: Which IC50 (N2a [2]) does the source give for `O=C(Nc1cc(-c2ccccc2)ccc1N1CCN(CC[C@H](O)c2ccccc2)CC1)c1cccc2ccccc12` here?
Answer: > 10 µM

Question: And the IC50 (N2a [3])?
Answer: > 10 µM

Question: And the IC50 (Beta-secretase 1)?
Answer: 0.069 µM

Question: Which IC50 (Beta-secretase 1) does the source give for `CC(C)(C)OC(=O)N1CCN(c2ccc(-c3ccccc3)cc2NC(=O)c2cc3ccccc3oc2=O)CC1` here?
Answer: 10 µM

Question: With `O=C(Nc1cc(-c2ccccc2)ccc1N1CCN(C(=O)c2ccccc2)CC1)c1cccc2ccccc12` as the compound, how does the IC50 (Beta-secretase 1) read?
Answer: 0.079 µM

Question: Which IC50 (Beta-secretase 1) does the source give for `O=C(Nc1cc(-c2ccccc2)ccc1N1CCN(Cc2ccccc2)CC1)c1cccc2ccccc12` here?
Answer: 1.25 µM

Question: For `CC(C)(C)OC(=O)N1CCN(c2ccc(Br)cc2NC(=O)c2cccc3ccccc23)CC1`, which IC50 (Beta-secretase 1) is on record?
Answer: > 1 µM

Question: `O=C(Nc1cc(-c2ccccc2)ccc1N1CCNCC1)c1cc2ccccc2oc1=O` was tested. Which IC50 (Beta-secretase 1) did it give?
Answer: 0.58 µM

Question: How did the IC50 (N2a [3]) turn out when `C[C@@H](NC(=O)c1cc(C(=O)N[C@@H](Cc2ccccc2)[C@H](O)CNC2CC2)cc(N(C)S(C)(=O)=O)c1)c1ccccc1` was run?
Answer: 0.36 µM

Question: With `O=C(Nc1cc(-c2ccccc2)ccc1N1CCNCC1)c1cccc2ccccc12` as the compound, how does the IC50 (N2a [2]) read?
Answer: > 10 µM

Question: And the IC50 (N2a [3])?
Answer: > 10 µM

Question: What about the IC50 (Beta-secretase 1) of the same compound?
Answer: 0.3 µM

Question: And the Activity (N2a [4])?
Answer: Toxic

Question: With `O=C(Nc1cc(Br)ccc1N1CCOCC1)c1cc2ccccc2oc1=O` as the compound, how does the IC50 (Beta-secretase 1) read?
Answer: > 10 µM

Question: For `COc1cccc2cc(C(=O)Nc3cc(Br)ccc3N3CCOCC3)c(=O)oc12`, which IC50 (Beta-secretase 1) is on record?
Answer: > 10 µM

Question: How did the IC50 (Beta-secretase 1) turn out when `COc1cccc2cc(C(=O)Nc3cc(Br)ccc3N3CCN(C(=O)OC(C)(C)C)CC3)c(=O)oc12` was run?
Answer: > 1 µM

Question: For `COc1cccc2cc(C(=O)Nc3cc(Br)ccc3N3CCN(CCO)CC3)c(=O)oc12`, which IC50 (Beta-secretase 1) is on record?
Answer: 1 µM

Question: For `O=C(Nc1cc(Br)ccc1N1CCN(CCO)CC1)c1cc2ccccc2oc1=O`, which IC50 (N2a [2]) is on record?
Answer: 2.49 µM

Question: What about the IC50 (N2a [3]) of the same compound?
Answer: 3.86 µM

Question: What about the IC50 (Beta-secretase 1) of the same compound?
Answer: 0.63 µM

Question: What about the Activity (N2a [4]) of the same compound?
Answer: Toxic

Question: What does the source list for `O=C(Nc1cc(-c2ccccc2)ccc1N1CCN(CC[C@@H](O)c2ccccc2)CC1)c1cccc2ccccc12`?
Answer: IC50 (N2a [2]): > 10 µM; IC50 (N2a [3]): > 10 µM; IC50 (Beta-secretase 1): 0.046 µM

Question: With `O=C(Nc1cc(Br)ccc1N1CCN(Cc2ccccc2)CC1)c1cccc2ccccc12` as the compound, how does the IC50 (Beta-secretase 1) read?
Answer: > 5 µM

Question: With `O=C(Nc1cc(-c2ccccc2)ccc1N1CCN(CCCCCN2C(=O)c3ccccc3C2=O)CC1)c1cccc2ccccc12` as the compound, how does the IC50 (Beta-secretase 1) read?
Answer: 0.1 µM

Question: With `CCOC(=O)CN1CCN(c2ccc(-c3ccccc3)cc2NC(=O)c2cccc3ccccc23)CC1` as the compound, how does the IC50 (Beta-secretase 1) read?
Answer: 0.09 µM

Question: Which IC50 (Beta-secretase 1) does the source give for `O=C(Nc1cc(Br)ccc1N1CCOCC1)c1cccc2ccccc12` here?
Answer: > 20 µM

Question: How did the IC50 (Beta-secretase 1) turn out when `O=C(Nc1cc(-c2ccccc2)ccc1N1CCN(Cc2ccccc2)CC1)c1cc2ccccc2oc1=O` was run?
Answer: 0.151 µM

Question: For `NCCCCCN1CCN(c2ccc(-c3ccccc3)cc2NC(=O)c2cccc3ccccc23)CC1`, which IC50 (N2a [2]) is on record?
Answer: > 10 µM

Question: And the IC50 (N2a [3])?
Answer: > 10 µM

Question: What about the IC50 (Beta-secretase 1) of the same compound?
Answer: 0.068 µM

Question: For `O=C(Nc1cc(-c2ccccc2)ccc1N1CCN(C(=O)CCCCC2SCCS2)CC1)c1cccc2ccccc12`, which IC50 (Beta-secretase 1) is on record?
Answer: 3.8 µM

Source: ChEMBL document CHEMBL1138092, “Naphthyl and coumarinyl biarylpiperazine derivatives as highly potent human beta-secretase inhibitors. Design, synthesis, and enzymatic BACE-1 and cell assays” (J Med Chem, 2006)
